{"source": "patent US5780221A", "about": "“Identification of enantiomeric ligands” (Whitehead Institute for Biomedical Research, priority 1996, dated 1998)", "key": {"L-SH3 domain": {"target": "T1, L-SH3 domain (Gallus gallus, UniProt P00523)", "T1 construct": "Residues 81 to 140 of chicken c-SRC were cloned; modified TrpLE leader (Met to Leu, Cys to Ala) (N, cleaved yes); His9 within the C-terminal region of the TrpLE leader (N, cleaved yes); made in house; host or cells: Escherichia coli BL21(DE3) pLysS, plasmid pMMHb-SRC SH3", "assay": "Competitive enzyme-linked immunosorbent assay (ELISA) for L-SH3 binding", "set-up": "species or system chicken", "conditions": "L- and D-amino acid ligands", "protocol": "(§1) The affinity of Pep-DI for the L-SH3 domain was determined by a competitive enzyme-linked immunosorbent assay (ELISA). Single wells of a 96-well plate were coated with 5 μg of the L-SH3 domain (Scott, J. K. and Smith, G. P., Science, 249:386 (1990); Smith, G. P. and Scott, J. K., Methods in Enzymol., 217:228 (1993)). Wells were blocked with BSA, and phages expressing the L-SH3-binding insert […] (SEQ ID NO: 10) were allowed to bind in 10 mM NaHPO4, pH 7.2, 15 mM NaCl, 1 mg/ml of BSA, 0.05% NaN3, and 0.1% Tween 20, in the presence of increasing amounts of competitor peptide. Phage binding was quantified with a rabbit M13 antibody (Stratagene) and alkaline phosphatase-labeled goat antibody to rabbit (Pierce), with a fresh solution of p-nitrophenol phosphate as substrate. Absorbance at 410 nm was determined with a Dynatech micotiter plate reader. […] Relative values for Kd were obtained as described (Minor, D. L., Jr. and Kim, P. S., Nature, 367:660 (1994)). […] A solution of the peptide was titrated into 1 μM SH3 solution in 15 mM NaCl and 10 mM NaHPO4, pH 7.2. Tryptophan fluorescence was induced by excitation at 295 nm (5 nm slit width), and emission was measured at 339 nm (10 nm slit width), with a Hitachi F-4500 fluorescence spectrometer. The dissociation constant was determined by Scatchard analysis."}, "SH3 domain": {"target": "T2, SH3 domain (Gallus gallus, UniProt P00523)", "T2 construct": "Residues 81 to 140 of chicken c-SRC were cloned; modified TrpLE leader (Met to Leu, Cys to Ala) (N, cleaved yes); His9 within the C-terminal region of the TrpLE leader (N, cleaved yes); made in house; host or cells: E. coli in M9 medium with (15NH4)2SO4, plasmid pMMHb-SRC SH3", "assay": "Direct tryptophan fluorescence spectroscopy titration", "format": "binding, chicken", "conditions": "1 μM SH3, 15 mM NaCl and 10 mM NaHPO4, pH 7.2; Scatchard analysis", "protocol": "as §1"}, "(L)-SH3": {"target": "T3, (L)-SH3 (Gallus gallus, UniProt P00523)", "T3 construct": "E. coli BL21(DE3) pLysS, pMMHb TrpLE-His9 fusion, cleaved with CNBr", "assay": "Retention of bacterially expressed (L)-SH3 on peptide affinity column", "format": "binding", "conditions": "residues 81-140 of chicken c-Src", "protocol": "The L- and D-enantiomers of the chicken c-SRC domain were prepared by bacterial expression and chemical synthesis, respectively. The biotinylated, synthetic, 60-amino acid D-SH3 domain was refolded and purified by affinity chromatography, with a D-amino acid version of a known peptide ligand for the SH3 domain (Yu, H., et al., Cell, 76:933 (1994)).\nThe all D amino acid SH3 domain, sequence […] S-COOH-terminus (SEQ ID No: 1), residues 81-140 of chicken c-SRC, was synthesized on HMP resin (ABI/Perkin Elmer) with an ABI 431A peptide synthesizer and ABI fastmoc cycles (Fmoc chemistry with HBTU activation and capping with acetic anhydride). Protected D-amino acids were obtained from Bachem California., Bachem Bioscience, Advanced Chemtech, and Novabiochem. For D-Ile and D-Thr, the side chain enantiomers were used, in which the chirality of the side chain is also inverted relative to naturally occurring L-Thr and L-Ile. After completion of the synthesis, the NH2 -terminus of the peptide was modified with NHS-LC-biotin II (Pierce). After cleavage, the peptide was lyophilized, dissolved in 6 M guanidine HCl, pH 6.0, and dialyzed against 100 mM NaHPO4 and 100 mM NaCl, pH 6.0, with the use of dialysis tubing with a molecular cutoff of 3,500 daltons (D) (Spectra/Por). […]"}}, "note": "Ends that are not written are not given here."}
{"substance": "(D)-RCLSGLRLGLVPCA [Pep-D1]", "values": [{"measurement": "competition with the L-amino acid ligand", "setting": "L-SH3 domain", "value": "competition observed for the binding of these two ligands"}]}
{"substance": "YGGRELPPLPRF-NH2", "values": [{"measurement": "Kd", "setting": "SH3 domain", "value": 6, "unit": "µM"}, {"measurement": "retention of bacterially expressed (L)-SH3 on peptide column", "setting": "(L)-SH3", "value": "can be retained on the (L)-enantiomer"}]}
